# In PMC8717895 (Neuro-oncology Advances, 2021):
# How the values were obtained:
# [1] = Serum pharmacokinetics, stratum A; type: in vivo, human; details: for AUC(0-t) / Cmax / half-life / Tmax: human, serum, oral; for AUC(0-t): 100 mg/m2, AUC0–T (AUC0–24h)
# PDGF α receptor = details: cited from earlier work
# PDGF β receptor = details: cited from earlier work
# [2] = cited from earlier work
# [3] = read-out: 50% inhibitory concentration
smiles,measurement,setting,value
CC1(COc2ccc3c(c2)ncn3-c2ccc3cccc(N4CCC(N)CC4)c3n2)COC1 [crenolanib],AUC(0-t),"[1]; stratum A1 (whole tablets), 100 mg/m^2, D28, median (range)",7.34 µM·h
same,AUC(0-t),"[1]; stratum A2 (crushed tablets), 100 mg/m^2, D28, median (range)",6.95 µM·h
same,Cmax,"[1]; 100 mg/m2, C MAX, stratum A1 (whole tablets), 100 mg/m^2, D1, median (range)",645 nM
same,Cmax,"[1]; 100 mg/m2, C MAX, stratum A1 (whole tablets), 100 mg/m^2, D28, median (range)",750 nM
same,Cmax,"[1]; 100 mg/m2, C MAX, stratum A2 (crushed tablets), 100 mg/m^2, D1, median (range)",692 nM
same,Cmax,"[1]; 100 mg/m2, C MAX, stratum A2 (crushed tablets), 100 mg/m^2, D28, median (range)",651 nM
same,half-life,"[1]; 100 mg/m2, Half-life, stratum A1 (whole tablets), 100 mg/m^2, D1, median (range)",8.5 h
same,half-life,"[1]; 100 mg/m2, Half-life, stratum A1 (whole tablets), 100 mg/m^2, D28, median (range)",4.9 h
same,half-life,"[1]; 100 mg/m2, Half-life, stratum A2 (crushed tablets), 100 mg/m^2, D1, median (range)",6.8 h
same,half-life,"[1]; 100 mg/m2, Half-life, stratum A2 (crushed tablets), 100 mg/m^2, D28, median (range)",5.1 h
same,Tmax,"[1]; 100 mg/m2, T MAX, stratum A1 (whole tablets), 100 mg/m^2, D1, median (range)",4 h
same,Tmax,"[1]; 100 mg/m2, T MAX, stratum A1 (whole tablets), 100 mg/m^2, D28, median (range)",6 h
same,Tmax,"[1]; 100 mg/m2, T MAX, stratum A2 (crushed tablets), 100 mg/m^2, D1, median (range)",2 h
same,Tmax,"[1]; 100 mg/m2, T MAX, stratum A2 (crushed tablets), 100 mg/m^2, D28, median (range)",4 h
same,Cmax,"[1]; 130 mg/m2, C MAX, stratum A, 130 mg/m^2, D1, median (range)",733 nM
same,Cmax,"[1]; 130 mg/m2, C MAX, stratum A, 130 mg/m^2, D28, median (range)",1110 nM
same,half-life,"[1]; 130 mg/m2, Half-life, stratum A, 130 mg/m^2, D1, median (range)",7.3 h
same,half-life,"[1]; 130 mg/m2, Half-life, stratum A, 130 mg/m^2, D28, median (range)",6.1 h
same,Tmax,"[1]; 130 mg/m2, T MAX, stratum A, 130 mg/m^2, D1, median (range)",2 h
same,Tmax,"[1]; 130 mg/m2, T MAX, stratum A, 130 mg/m^2, D28, median (range)",4 h
same,Cmax,"[1]; 170 mg/m2, C MAX, stratum A, 170 mg/m^2, D1, median (range)",1240 nM
same,Cmax,"[1]; 170 mg/m2, C MAX, stratum A, 170 mg/m^2, D28, median (range)",2010 nM
same,half-life,"[1]; 170 mg/m2, Half-life, stratum A, 170 mg/m^2, D1, median (range)",8.5 h
same,half-life,"[1]; 170 mg/m2, Half-life, stratum A, 170 mg/m^2, D28, median (range)",7.2 h
same,Tmax,"[1]; 170 mg/m2, T MAX, stratum A, 170 mg/m^2, D1, median (range)",4 h
same,Tmax,"[1]; 170 mg/m2, T MAX, stratum A, 170 mg/m^2, D28, median (range)",3 h
same,Cmax,"[1]; 220 mg/m2, C MAX, stratum A, 220 mg/m^2, D1, median (range)",1890 nM
same,Cmax,"[1]; 220 mg/m2, C MAX, stratum A, 220 mg/m^2, D28, median (range)",2270 nM
same,half-life,"[1]; 220 mg/m2, Half-life, stratum A, 220 mg/m^2, D1, median (range)",6.75 h
same,half-life,"[1]; 220 mg/m2, Half-life, stratum A, 220 mg/m^2, D28, median (range)",5.5 h
same,Tmax,"[1]; 220 mg/m2, T MAX, stratum A, 220 mg/m^2, D1, median (range)",4 h
same,Tmax,"[1]; 220 mg/m2, T MAX, stratum A, 220 mg/m^2, D28, median (range)",2 h
same,AUC0–T (AUC0–∞),"[1]; stratum A1 (whole tablets), 100 mg/m^2, D1, median (range)",8683 (4566–15 895) h·nM
same,AUC0–T (AUC0–∞),"[1]; stratum A2 (crushed tablets), 100 mg/m^2, D1, median (range)",7397 (3759–16 455) h·nM
same,AUC0–T (AUC0–∞),"[1]; stratum A, 130 mg/m^2, D1, median (range)",5951 (2675–15 291) h·nM
same,50% inhibitory concentration,PDGF α receptor,approximately 1 ng/mL
same,IC50,PDGF α receptor; [3],~2.25 nM
same,50% inhibitory concentration,PDGF β receptor,~0.4 ng/mL
same,IC50,PDGF β receptor; [3],~0.902 nM
same,incidence of significant elevations of liver enzymes,[2]; adults with advanced solid tumors,< 5%
same,Maximum tolerated dose (MTD),"[2]; adults, uncoated tablets with food",not reached
